What was measured:
[1] = test system: differentiating Stage 1 cultures (definitive endoderm); experiment: Secondary screen on differentiating Stage 1 cultures in 6-well trays; assay type: cell-based, human; details: compounds added to differentiating Stage 1 cultures
Text: (§1) The impedance assay on the hESCs using the compounds in Table 4 above gave greater than twenty (20) hits. However, the ideal candidate compound of the present invention should not only be inhibitory or cytotoxic to human pluripotent stem cells, such as hESCs or hIPSCs, but should at the same time have no effect on cell viability of differentiated or differentiating cell populations including Stage 1, 2, 3, 4 and 5 type cells cultures (definitive endoderm, foregut endoderm, posterior foregut, pancreatic endoderm and endocrine cells, respectively). […] Approximately 3×10^4 hES cells were plated per well and grown for 24 hrs in DC-HAIF defined medium (i.e. StemPro® hESC SFM medium (Life Technologies, Carlsbad, Calif.). Stage 1 or definitive endoderm differentiation was then induced by changing the medium and culturing in RPMI, 100 ng/mL Activin A, and 10 ng/mL of FGF2. […] of GSK-3 beta Inhibitor 15 (Calbiochem #361558) as added to the culture for the first 24 hours of differentiation only. 10 μM of each of the candidate compounds were added about 48 hours or 2 days after differentiation was induced (see FIGS. 3 C & D, large arrowhead), and the cells were cultured for an additional 2 days.
Secondary Screen with Selected Compounds. A secondary screen using 9 of the 10 candidate compounds in Table 5 was performed by adding the compounds to differentiating Stage 1 cultures (definitive endoderm) as described above. For the secondary screen, larger standard 6-well trays were used instead of the RT-CEAS 96-well culture plates used in primary screens employing impedance assays. Only 9 of the 10 compounds in Table 5 were tested because the 10th was not available in sufficient quantity at the time the assays were performed. In the larger, 6-well trays, 5 of the 9 compounds listed in Table 5 had no effect on viability of differentiating cells or differentiated definitive endoderm. […] This assay also confirmed that the viability of differentiating cells and differentiated definitive endoderm cells was apparently consistent regardless of the numbers of cells tested, or the size, volume, or source of the culture vessel.

[2] = test system: hESCs (BG02); experiment: Real-time impedance assay (RT-CES) for inhibitory and cytotoxic agents on hESCs; details: 10 μM compound added after about 24 hours, cultured about 5 more days; compared to DMSO control
Text: The foregoing 176 selected compounds from the complete LOPAC1280™ library were then used to screen human pluripotent stem cells, e.g., hESCs, and differentiating cultures during Stage 1 (definitive endoderm) using a real-time impedance assay (ACEA biosciences RT-CES system). The RT-CES system uses 96-well trays that contain embedded microsensors to monitor changes in electrical impedance, which is translated into a measure of cell index. Any overt alteration within a cell culture can be detected, including but not limited to cell proliferation, migration, cell spreading, apoptosis, differentiation and the like. […] An increase in the cell index indicates proliferation of the cells, for example, proliferation of the undifferentiated cells. […] See also FIG. 1. […] A “scallop” cell index is one which remains high due to a confluent culture of cells, but will go down and up (scallop) between daily feedings. Conversely, cells undergoing differentiation have distinctive patterns, such as peaks and troughs in the cell index, potentially indicative of an epithelial-to-mesenchymal transition, flattening, cell migration, apoptosis or similar differentiation and growth related changes.
Impedance Assay for Inhibitory and Cytotoxic Agents. Human pluripotent stem cells, e.g., 2×10^4 hESCs (BG02), were cultured in DC-HAIF, a heregulin-based defined media, with daily feeding in the impedance monitoring plates. After about 24 hours, and 10 μM of the selected LOPAC1280™ compound was added to each well (see arrowhead in FIGS. 3 A & B) and cultured for about an additional 5 days.

[3] = test system: adherent Stage 1 cell cultures of BG02; experiment: Q-PCR marker gene expression, adherent Stage 1 cultures of BG02; assay type: cell-based, human
Text: FIGS. 4A-4G are bar graphs showing the relative gene expression levels of OCT4 (FIG. 4A), NANOG (FIG. 4B), FOXA2 (FIG. 4C), SOX17 (FIG. 4D), SOX7 (FIG. 4E), PAX6 (FIG. 4F) and ZIC1 (FIG. 4G) BG02 with treatment of candidate selective cytotoxic agents from the LOPAC1280™ sublibrary (Table 4) to adherent Stage 1 cell cultures of BG02. Expression levels were normalized using the geometric mean of three housekeeping genes, GUSB, CYCG and TBP. The graphs depict fold regulation compared to the hESC sample. The large arrow heads indicate time of the drug treatment. D=DMSO (control); C=Chelerythrine Chloride; A=AG490; B=BTO-1; De=Dephostatin; S=SU6656.
Screen for Effects on Stages 1-5 Differentiation. To further determine whether these 5 candidate compounds added at Stage 1 affected other differentiated cell types (e.g. Stages 2-5: foregut endoderm, posterior foregut endoderm, pancreatic endoderm and endocrine precursor cells, respectively), hES were differentiated in the presence or absence of compounds, and RNA samples were taken at various stages for gene expression analysis by Q-PCR.
Gene expression levels were plotted relative to a DMSO treated control at the end of Stage 1 (FIG. 4), and relative to undifferentiated hESC aggregates (FIGS. 5 and 6). See “Control” in FIGS. 4, 5 & 6. […] Chelerythrine chloride, Dephostatin, SU 6656 and Tyrphostin AG 490 compounds each caused an increase in SOX17 gene expression as compared to the DMSO control, consistent with the gene expression profile for Stage 1 definitive endoderm cell cultures (FIG. 4D). However, Tyrphostin AG 490 (AG) and SU 6656 (SU) each caused a decrease in FOXA2 (HNF3β) expression as compared to the DMSO control, indicating adverse effects of these two compounds on definitive endoderm (FIG. 4C). Yet none of the compounds appeared to substantially impact expression of non-definitive endoderm markers including SOX7, PAX6 or ZIC1 (FIGS. 4 E, 4F & 4G), and were not, therefore, excluded on the basis of inducing differentiation to other cell types. […] This compound neither decreased OCT4 or NANOG expression, nor increased FOXA2 (HNF3β) or SOX17 expression, as would have been expected of a pluripotent stem cell-selective inhibitor/cytotoxic agent.

[4] = test system: undifferentiated hESCs growing in adherent culture; experiment: EC50 of cytotoxic effect on undifferentiated hESCs in adherent culture, real-time impedance assay; assay type: cell-based, human; details: Homo sapiens, read-out: EC50 concentrations for hES cells (cytotoxic effect)
Description: In summary, the final three (3) candidates identified from both the primary and secondary screens (EXAMPLE 1) and the full screen of the LOPAC1280™ collection (EXAMPLE 2) were Chelerythrine Chloride, Caffeic acid and Ivermectin. FIG. 11 lists the known or inferred mode(s) of action for these three compounds, as well as their structures. EC50 values for the respective cytotoxic effects on undifferentiated hESCs growing in adherent culture were determined using real-time impedance assays.
Depletion of OCT4-positive cells during Stage 1 differentiation was examined using the plating assay described above. Stage 1 differentiations of hES cells were treated from day 1 to 2 with the candidate compounds as described in Example 2 (chelerythrine chloride, caffeic acid and Ivermectin), at their EC50 concentrations for hES cells. Plated untreated and DMSO-treated aggregates were indistinguishable, and both contained discrete clusters of OCT4-positive cells. See FIG. 13A top and bottom panels for a DMSO treated example. The intensity of OCT4-positive staining in differentiating aggregate cell cultures treated with DMSO (control) was equivalent to undifferentiated hES cells.

[5] = test system: NPCs; experiment: Secondary screen, lowest effective dose on NPCs; assay type: cell-based, human; details: lowest concentration that elicited cytotoxicity; range 0.1 to 50 μM; read-out: ED NPC (lowest effective dose)
Description: In addition, the complete LOPAC1280™ collection was also screened for effects on neural progenitor cells (NPCs) that were derived from the hESCs. Neural progenitors were plated in serum-free MedII conditioned medium at 6×10^4 cells/well and fed daily. Two days after plating, 10 μM of each compound was added and the cells were cultured for an additional 2 days. […] Reduced crystal violet staining was indicative of lower proportions of NPCs. See circled wells in FIG. 7B. The left and right columns of the LOPAC1280™ plates from which the compounds were dispensed were empty and served as untreated controls. […] See Table 6 below listing the name and class of activity of each candidate compound identified in this screen (except chelerythrine chloride, which is listed in Table 5). ChCl was not included in the subsequent round of screening. Therefore only 40 compounds were tested further.
(§2) Using a range of different concentrations from 0.1 to 50 μM, the forty compounds in Table 6 were re-screened (secondary screen) using hESCS and NPCs. The effective dose (ED) was defined as the lowest concentration of a compound that elicited cytotoxicity during the secondary screen. […] The darker wells were indicative of the increased numbers or percentages of proliferating or growing pluripotent stem cells in the wells. In addition, these 40 compounds were screened on differentiating definitive endoderm (DE) cell cultures in 96-well plate impedance assays (described above) to determine which of these compounds were not cytotoxic to definitive endoderm cells at the lowest effective dose on either hESC or NPC. […] See “ACEA DE” column in Table 6.

[6] = test system: hESCs; experiment: Secondary screen, lowest effective dose on hESCs; assay type: cell-based, human; details: lowest concentration that elicited cytotoxicity; range 0.1 to 50 μM; read-out: ED hESC (lowest effective dose)
Description: To expand the number of potential candidate hESC cytotoxic and inhibitory compounds, the complete LOPAC1280™ collection (containing 1,280 compounds) was screened. In the primary screen, cytotoxicity was tested on undifferentiated hESCs (about 3×10^4 BG01 cells) in 16 standard 96-well trays, in DC-HAIF defined medium on growth factor-reduced MATRIGEL™ diluted 1:200, which were fed daily (FIG. 7A). 10 μM of each compound was added to the hESCs one day after plating, and the cells were cultured for an additional 2 days. Plates were then fixed and stained for alkaline phosphatase (AP) to identify relative decreases in proliferation or growth of hESCs (as reduced AP staining), indicative of lower proportions of hESCs. See the circled wells in FIG. 7A.
as §2

[7] = test system: differentiating definitive endoderm (DE) cell cultures; experiment: 96-well plate impedance assay (ACEA) on differentiating definitive endoderm at lowest effective dose; assay type: cell-based, human; design: key: Viable: Compounds that did not appear to be cytotoxic toward differentiating DE cultures were marked as “viable”, meaning that the compound did not affect the survival, growth, proliferation or differentiation of the differentiated cells; details: at the lowest effective dose on either hESC or NPC
Text: as §1, §2

N#Cc1cc([N+](=O)[O-])c2sc(C(N)=O)[n+]([O-])c2c1 [BTO-1]
Viability of Definitive Endoderm [1]: Viable
cell index (impedance); inhibitory or cytotoxic effect on the hESCs [2]: significant decrease
FOXA2 (HNF3β) expression ([3]; end of Stage 1, compared to DMSO control (FIG. 4C)): did not appear to have any effect
SOX17 gene expression ([3]; end of Stage 1, compared to DMSO control (FIG. 4D)): did not appear to have any effect
OCT4 and NANOG gene expression ([3]; end of Stage 1, compared to DMSO control (FIGS. 4A, 4B)): did not appear to have any effect

COc1ccc2c(c[n+](C)c3c4cc5c(cc4ccc23)OCO5)c1OC [Chelerythrine chloride]
EC50 [4]: 1400 nM
cell index (impedance); inhibitory or cytotoxic effect on the hESCs [2]: significant decrease

CC(Cc1ccc(O)c(O)c1)C(C)Cc1ccc(O)c(O)c1 (stereo not drawn) [Nordihydroguaiaretic acid from Larrea, Nordihydroguaiaretic acid from Larrea divaricata (creosote bush)]
minimal effective concentration [5]: 5 µM
cell index (impedance); inhibitory or cytotoxic effect on the hESCs [2]: significant decrease
minimal effective concentration [6]: 5 µM
ACEA DE [7]: Viable

N#C/C(=C\c1ccc(O)c(O)c1)C(=O)Nc1ccccc1 [Tyrphostin AG 494]
cell index (impedance); inhibitory or cytotoxic effect on the hESCs [2]: significant decrease
